Laboratory results as given in BigSolDB 2.1.

Nc1ccc(S(=O)(=O)Nc2ccc(Cl)nn2)cc1
solubility (mole fraction)
Conditions | in 1,4-dioxane | in acetone | in acetonitrile | in ethanol | in ethyl acetate | in isopropanol | in methanol | in n-butanol | in water
283.15 K | 0.0994 | 0.0647 | 0.0187 | 0.00381 | 0.0135 | 0.0031 | 0.00473 | 0.00335 | 2.25e-05
288.15 K | 0.106 | 0.0715 | 0.0193 | 0.00432 | 0.0141 | 0.00345 | 0.00513 | 0.00372 | 3.31e-05
293.15 K | 0.116 | 0.0804 | 0.0202 | 0.00484 | 0.0152 | 0.00382 | 0.00569 | 0.00421 | 4.39e-05
298.15 K | 0.129 | 0.0908 | 0.0213 | 0.00543 | 0.0165 | 0.00429 | 0.00627 | 0.00474 | 5.9e-05
303.15 K | 0.143 | 0.102 | 0.0224 | 0.00616 | 0.0179 | 0.00476 | 0.00696 | 0.00531 | 7.53e-05
308.15 K | 0.159 | 0.116 | 0.0239 | 0.00689 | 0.0198 | 0.00538 | 0.00779 | 0.00596 | 9.52e-05
313.15 K | 0.179 | 0.131 | 0.0258 | 0.00777 | 0.0219 | 0.00614 | 0.00867 | 0.00676 | 0.000119
318.15 K | 0.204 | 0.147 | 0.0283 | 0.00879 | 0.0244 | 0.00702 | 0.00966 | 0.00768 | 0.000149
323.15 K | 0.235 | 0.165 | 0.0312 | 0.0101 | 0.0268 | 0.00792 | 0.0109 | 0.00867 | 0.000184
